Where “and” joins values, the source holds several entries; their conditions need not be identical. Identical values can stand only once. Like-named read-outs stand apart in the source and are kept apart here.
Columns and labels:
[1] = target: T1, recombinant HCV NS3/4A GT1b WT (Hepatitis C virus genotype 1b, UniProt Q9WMX2); assay: biochemical; format: biochemical
T1 construct: recombinant HCV NS3/4A GT1b WT
Protocol: (§1) In order to validate that this group of molecules elicit their cellular effects via inhibition of the viral protease, we incubated compounds 1, 12 and 22 with recombinant NS3/4A protease GT1b and an inhibitor-resistant mutant containing a D168A mutation. D168 is located in the S2 and S4 sub-pockets and mutations in these sub-pockets can cause significant resistance to the inhibitors resulting in decreased activity of peptidomimetic inhibitors^21,37-38. […] As a control, potency was evaluated using the approved HCV protease inhibitor, simeprevir.
(§2) HCV NS3/4A enzymatic inhibition assay. The activities of two proteases (recombinant HCV NS3/4A GT1b WT and full-length HCV NS3/4A GT1b D168A) were measured using a fluorogenic substrate, Ac-Glu-Glu-Val-Val-Ala-Cys-AMC (Sigma-Aldrich) where AMC corresponds to 7-amino-4-methylcourmarin. Assays were performed in 50 mM HEPES pH 7.4, 15 mM NaCl, 0.01% Triton X-100, 10 mM DTT in a black 384-well microplate (BD Falcon). […] Fluorescence was monitored at excitation and emission wavelengths of 360 nm and 460 nm in a Synergy™ HTX Multi-Mode Microplate Reader (BioTek). Data was visualized using Gen5™ Software (Biotek). The activity of enzyme was calculated from the change in relative fluorescence units (RFU) over time. For inhibition assays, compounds were pre-incubated with enzyme for 240 minutes prior to adding the enzyme/inhibitor mixture to the substrate. All assays were performed in triplicate wells.

[2] = target: T2, full-length HCV NS3/4A GT1b D168A (Hepatitis C virus genotype 1b, UniProt Q9WMX2, D1194A); assay: biochemical; format: biochemical
T2 construct: full-length HCV NS3/4A GT1b D168A; His tag; made in house; host or cells: E. coli Rosetta 2(DE3)
T2 sequence (Q9WMX2 1027-1657, looked up, stated change not applied): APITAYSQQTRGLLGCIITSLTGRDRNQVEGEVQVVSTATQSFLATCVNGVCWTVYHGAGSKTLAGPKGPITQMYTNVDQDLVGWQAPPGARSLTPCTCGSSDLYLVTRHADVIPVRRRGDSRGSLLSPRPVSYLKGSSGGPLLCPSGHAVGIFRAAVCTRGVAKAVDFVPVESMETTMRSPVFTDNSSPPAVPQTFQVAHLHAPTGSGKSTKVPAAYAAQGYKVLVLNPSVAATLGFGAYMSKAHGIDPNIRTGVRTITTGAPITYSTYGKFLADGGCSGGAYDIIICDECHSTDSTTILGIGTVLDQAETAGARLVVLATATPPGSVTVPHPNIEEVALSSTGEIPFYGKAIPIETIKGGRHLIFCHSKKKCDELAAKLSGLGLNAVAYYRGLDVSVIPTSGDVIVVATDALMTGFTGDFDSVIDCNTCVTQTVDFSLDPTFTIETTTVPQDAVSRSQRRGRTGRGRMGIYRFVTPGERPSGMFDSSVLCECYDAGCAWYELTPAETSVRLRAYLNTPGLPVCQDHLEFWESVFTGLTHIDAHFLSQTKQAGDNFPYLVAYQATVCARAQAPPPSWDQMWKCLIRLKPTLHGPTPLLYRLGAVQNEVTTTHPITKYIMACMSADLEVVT
T2 sequence (Q9WMX2 1658-1711, stated change not applied): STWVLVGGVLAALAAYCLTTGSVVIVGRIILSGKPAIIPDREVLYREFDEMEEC
Protocol: as §1
(§3) Plasmid construction and purification of HCV NS3/A protein. Drug resistant mutant D168A was generated by mutagenesis using NS3-containing recombinant plasmid (pETDuet-1 Hepatis C Virus NS3/4A, a gift from Michael Johnson, Addgene plasmid #16196) as a template. The single mutation of aspartic acid (D) to alanine (A) was introduced by mutagenesis at position 168 using specific primers (Forward: 5′-[…]-3′ and Reverse: 5′-[…]-3′). The over expression and purification were preformed followed the method that previously described^43. Rosetta 2(DE3) cells (Novagen) containing the modified recombinant plasmid with histidine tag were grown in Lysogeny Broth medium. The over expression was introduced by addition of Isopropyl β-D-1-thiogalactopyranoside (IPTG) to the final concentration of 0.5 mM and the bacteria were incubated at room temperature for 16 h. […] The solution was passed through Ni-NTA column and washed by buffer B (50 mM HEPES, pH 7.6, 500 mM NaCl, 50 mM imidazole, 5 mM β-MCE, 0.2% Triton X-100, and 15% glycerol). The His-tag fused protein was eluted by buffer C (50 mM HEPES, pH 7.6, 500 mM of NaCl, 500 mM of imidazole, 5 mM β-MCE, 0.2% Triton X-100, and 15% glycerol) followed by dialysis using buffer (50 mM HEPES, pH 7.6 and 500 mM of NaCl). Purified NS3/4A protein was concentrated an d buffer exchanged into buffer D (50 mM HEPES, pH 7.6, 500 mM of NaCl, 5 mM β-MCE, 0.2% Triton X-100, and 50% glycerol) using a protein concentrator 10 k (Amicon®).
as §2

[3] = test system: sub-genomic HCV GT1b replicon (BM4-5 FEO), GT1b WT; assay: HCV replicon assay (luciferase antiviral efficacy); format: cell-based, hepatitis C virus; details: BM4-5 FEO cells, 48 h, read-out: EC50 ± SD Gt 1b wt
Protocol: (§4) The 20 compounds from class C were tested […] for inhibition of viral replication (GT1b wild-type) in BM4-5 FEO cells and for mammalian cell cytotoxicity. The numbers of virus particles were evaluated by quantifying luciferase produced during the virus life cycle^41 while toxicity was evaluated using a cell viability assay. […] Prior to additional biochemical studies, several key chemical properties for each of the Class C molecules were determined.
Replicon construct. The BM4-5 replicon is a sub-genomic HCV GT1b replicon that contains adaptive mutation of serine in the NS5A region^41. The firefly luciferase gene was added into the BM4-5 replicon to generate BM4-5 FEO replicon. The construction procedures have been previously described^42.
(§5) Luciferase antiviral efficacy and cells viability assays. BM4-5 FEO replicon approximately 10,000 cells in 100 μL of medium were seeded into 96-well plates and incubate for 6 h for attachment. Then, the compounds were added at to the wells in specific concentration and incubate for 48 h. The luciferase assay (Bright-Glo; Promega) was carried out according to the manufacturer's instructions. Luciferase activity was determined using a microplate luminometer (Veritas microplate luminometer; Turner Biosystems). For cells viability assays, BM4-5 FEO at the density 10,000 cells in 100 μL medium was incubated at 37° C. for 6 h for attachment, then the compounds were added and incubated for another 48 hours. The number of living cells were measured by Cell Titer-blue assay (Promega). The fluorescence absorption (560Ex/590Em) for 96-well plate was read by Benchmark Scientific MR9600 with. The activity and toxicity of each compound were measured by at least six different concentrations in triplicate.

BM4-5 human liver cells = assay: CellTiter-Blue cell viability assay; format: cell-based; details: BM4-5 FEO cells, 48 h, read-out: LC50 ± SD
Protocol: as §4, with “determined. Calculated polar surface area (PSA), lipophilicity (LogP), and molecular weight for each compound (Table IA) complied with the general criteria for drug-like molecules.” for “determined.”
as §5

[4] = test system: full-length HCV NS3/4A GT1b D168A; assay: biochemical; format: biochemical, hepatitis C virus; details: for IC50—D168A/IC50—wt ratio: D168A mutant versus wt protease
Protocol: as §1, §3, §2

pig pancreatic elastase = target: T3, pig pancreatic elastase (Sus scrofa, UniProt P00772); assay: Counter-screening assay, elastase; format: biochemical; details: 13.08 and 14.68, 5.2 μM of 1, 12, and 22, respectively; 40 nM enzyme
T3 construct: purchased Sigma
T3 sequence (P00772 27-266): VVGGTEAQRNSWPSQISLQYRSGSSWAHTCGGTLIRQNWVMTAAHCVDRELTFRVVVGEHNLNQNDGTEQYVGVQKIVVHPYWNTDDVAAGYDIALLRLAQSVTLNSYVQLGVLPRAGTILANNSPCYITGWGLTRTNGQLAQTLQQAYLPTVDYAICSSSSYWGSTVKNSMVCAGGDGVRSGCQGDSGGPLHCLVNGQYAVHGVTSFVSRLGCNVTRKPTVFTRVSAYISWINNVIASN
Protocol: (§6) In addition, we tested these compounds for inhibition against the fungal serine protease, proteinase K that is structurally related to several mammalian serine proteases such as the proprotein convertase enzymes and furin^44.
(§7) Counter-screening assay. Counter-screening assays were performed with 40 nM of bovine trypsin (Sigma), pig pancreatic elastase (Sigma), human chymotrypsin and proteinase k and 60 μM of the appropriate fluorogenic substrates for trypsin, elastase, chymotrypsin, and proteinase K are Boc-Leu-Arg-Arg-AMC (trypsin), Me-Arg-Arg-Pro-Val-AMC (elastase) and Suc-Arg-Arg-Pro-Phe-AMC (chymotrypsin and proteinase K). Assays were performed in 50 mM HEPES pH 7.4, 15 mM NaCl, 0.01% Triton X-100 in black 96-well microplates (BD Falcon) at a final volume of 50 μL. The final concentration of DMSO in each well was 2.5%. Fluorescence was measured as outlined above.

bovine trypsin = target: T4, bovine trypsin (Bos taurus, UniProt P00760); assay: Counter-screening assay, trypsin; format: biochemical; details: 13.08 and 14.68, 5.2 μM of 1, 12, and 22, respectively; 40 nM enzyme
T4 construct: purchased Sigma
T4 sequence (P00760 24-246): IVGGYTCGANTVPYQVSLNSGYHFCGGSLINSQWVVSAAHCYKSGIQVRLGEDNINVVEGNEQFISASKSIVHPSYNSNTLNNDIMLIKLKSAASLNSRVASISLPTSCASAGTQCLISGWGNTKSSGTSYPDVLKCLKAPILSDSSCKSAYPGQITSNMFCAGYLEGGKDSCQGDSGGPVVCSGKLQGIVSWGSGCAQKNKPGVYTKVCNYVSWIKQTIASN
Protocol: as §6, §7

proteinase K = proteinase K (Parengyodontium album, UniProt P06873); assay: Counter-screening assay, proteinase K; format: biochemical, fungal; details: 13.08 and 14.68, 5.2 μM of 1, 12, and 22, respectively; 40 nM enzyme
proteinase K, sequence (P06873 106-384): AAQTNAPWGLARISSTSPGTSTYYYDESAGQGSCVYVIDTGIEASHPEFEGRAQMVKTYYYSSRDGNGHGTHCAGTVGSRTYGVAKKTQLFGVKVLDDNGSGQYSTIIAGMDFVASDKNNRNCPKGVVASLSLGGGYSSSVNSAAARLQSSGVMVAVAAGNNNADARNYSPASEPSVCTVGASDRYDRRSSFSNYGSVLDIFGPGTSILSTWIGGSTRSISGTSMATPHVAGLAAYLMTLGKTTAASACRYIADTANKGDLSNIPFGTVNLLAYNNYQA
Protocol: as §6, §7

[5] = Potentiometric titration, Sirius T3 instrument; format: physicochemical
Description: As highlighted in Scheme 1, the tryptophan derived HCV NS3/4 protease inhibitors, 21 and 22, were synthesized starting from 3-(piperidine-1-yl)propan-1-amine (23), which could be accessed in two steps from commercially available N-(bromopropyl)phthalimide and piperidine, and N-Boc protected L-tryptophan (24). Thus, HBTU mediated coupling of […] and 24, followed by N-Boc deprotection and carbamoylation reaction with the appropriate isocyanate provided the desired compounds. 21 and 22. These test compounds were characterized by ^1H-NMR, ^13C-NMR, and HRMS. In addition, experimental pKa values, lipophilicity (LogP), and LogD7.4 of 22 were determined via potentiometric titrations using a Sirius T3 instrument. Compounds 21 and 22, as well as the 20 compounds from the primary screen, were then tested in cell-based assays to evaluate activity against HCV and toxicity to the host cells (Table 2).

human chymotrypsin = human chymotrypsin (Homo sapiens, UniProt P17538); assay: Counter-screening assay, chymotrypsin; format: biochemical; details: 13.08 and 14.68, 5.2 μM of 1, 12, and 22, respectively; 40 nM enzyme
human chymotrypsin, sequence (P17538 19-263): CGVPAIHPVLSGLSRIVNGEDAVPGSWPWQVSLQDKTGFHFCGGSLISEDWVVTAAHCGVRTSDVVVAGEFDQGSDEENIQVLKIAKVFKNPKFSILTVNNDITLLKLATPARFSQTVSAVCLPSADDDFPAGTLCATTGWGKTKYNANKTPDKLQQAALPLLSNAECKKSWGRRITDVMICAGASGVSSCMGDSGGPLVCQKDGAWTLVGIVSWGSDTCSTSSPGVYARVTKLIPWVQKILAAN
Protocol: as §6, §7

[6] = 40 nM enzyme, 60 μM Ac-Glu-Glu-Val-Val-Ala-Cys-AMC, 240 min pre-incubation, read-out: IC50 GT1b WT
[7] = 40 nM enzyme, 60 μM Ac-Glu-Glu-Val-Val-Ala-Cys-AMC, 240 min pre-incubation, read-out: IC50 GT1b D168A

T1 sequence (Q9WMX2 1658-1711): as the sequence (Q9WMX2 1658-1711, stated change not applied) above
T1 sequence (Q9WMX2 1027-1657): as the sequence (Q9WMX2 1027-1657, looked up, stated change not applied) above

Structure (SMILES) | EC50 [3] [µM] | CC50 (BM4-5 human liver cells) [µM] | further results
C[C@H]1CCCCN1CCCNC(=O)C(Cc1c[nH]c2ccccc12)NC(=O)Nc1cccc(Br)c1 (some centres unmarked) [Compound 1] |  |  | IC50 [1]: 14.7 ± 1.23 µM; IC50 [2]: 11.4 ± 0.45 µM; EC50 ([3]; Hepatitis C virus, GT1B): 0.95 ± 0.26 µM
CC1CCCCN1CCCNC(=O)C(Cc1c[nH]c2ccc(F)cc12)NC(=O)Nc1cc(Cl)ccc1Cl (centres unmarked) [Compound 2] | 6.12 ± 2.3 |  | 
CC1CCCCN1CCCNC(=O)C(Cc1c[nH]c2ccccc12)NC(=O)Nc1ccc(N(C)C)cc1 (centres unmarked) [Compound 6] | 63.4 ± 11 | > 100 | 
Cc1ccc2[nH]cc(CC(NC(=O)Nc3cc(Cl)ccc3Cl)C(=O)NCCCN3CCCCC3C)c2c1 (centres unmarked) [Compound 7] | 6.35 ± 1.11 |  | 
CC(=O)c1cccc(NC(=O)NC(Cc2c[nH]c3ccccc23)C(=O)NCCCN2CCCCC2C)c1 (centres unmarked) [Compound 8] | 10.9 ± 4.93 | > 100 | 
COc1ccc(OC)c(NC(=O)NC(Cc2c[nH]c3ccccc23)C(=O)NCCCN2CCCCC2C)c1 (centres unmarked) [Compound 9] | 51.4 ± 15.2 | > 100 | 
COc1ccc2[nH]cc(CC(NC(=O)Nc3cc(Cl)ccc3Cl)C(=O)NCCCN3CCCCC3C)c2c1 (centres unmarked) [Compound 10] | 33.2 ± 3.17 | > 100 | 
O=C(Nc1ccccc1Br)NC(Cc1c[nH]c2ccccc12)C(=O)NCCCNC1CC2CCC1C2 (centres unmarked) [Compound 11] | 5.99 ± 2.61 |  | 
CC(C)c1ccc(NC(=O)NC(Cc2c[nH]c3ccccc23)C(=O)NCCCN2CCCC[C@@H]2C)cc1 (some centres unmarked) [Compound 12] |  |  | IC50 [1]: 13.1 ± 2.77 µM; IC50 [2]: 11.5 ± 0.55 µM; EC50 ([3]; Hepatitis C virus, GT1B): 1.5 ± 0.07 µM
CC1CCCCN1CCCNC(=O)C(Cc1c[nH]c2ccccc12)NC(=O)Nc1c(F)cc(Br)cc1F (centres unmarked) [Compound 13] | 35.4 ± 7.71 |  | 
CC1CCCC(C)N1NCCCNC(=O)C(Cc1c[nH]c2ccccc12)NC(=O)Nc1ccccc1Br (centres unmarked) [Compound 14] | 5.15 ± 0.63 |  | 
O=C(Nc1cccc(Br)c1)NC(Cc1c[nH]c2ccccc12)C(=O)NCCCNC1CCCCCC1 (centres unmarked) [Compound 15] | 6.82 ± 0.74 |  | 
CCOC(=O)C1CCCCN1CCCNC(=O)C(Cc1c[nH]c2ccccc12)NC(=O)Nc1ccccc1Br (centres unmarked) [Compound 17] | 2.98 ± 1.08 |  | 
O=C(Nc1ccccc1Br)NC(Cc1c[nH]c2ccccc12)C(=O)NCCCNC1CCCCC1O (centres unmarked) [Compound 18] | 4.58 ± 0.32 |  | 
O=C(Nc1ccccc1Br)NC(Cc1c[nH]c2ccccc12)C(=O)NCCCNC1CCC(O)CC1 (centres unmarked) [Compound 19] | 32.6 ± 14.8 | > 100 | 
O=C(Nc1cccc(Br)c1)N[C@@H](Cc1c[nH]c2ccccc12)C(=O)NCCCN1CCCCC1 [Compound 21] | 1.3 ± 1.25 | 29.5 ± 1.48 | 
CC(C)c1ccc(NC(=O)N[C@@H](Cc2c[nH]c3ccccc23)C(=O)NCCCN2CCCCC2)cc1 [Compound 22] | 0.64 ± 0.13 | 47 ± 6.98 | IC50 [1, 6]: 5.2 µM and 4.6 µM; Potency lower than simeprevir ([1]; wt protease IC50 compared with simeprevir): 120 fold; IC50—D168A/IC50—wt ratio [4]: 1.4; Change in potency, D168A mutant versus wt protease ([4]; result in words): no significant reduction on potency; IC50 [2, 7]: 5.98 ± 0.43 µM; Decrease of elastase activity (pig pancreatic elastase): did not decrease activity; Decrease of trypsin activity (bovine trypsin): did not decrease activity; Decrease of proteinase K activity (proteinase K): did not decrease activity; Experiment value of logP [5]: 4.1; Decrease of chymotrypsin activity (human chymotrypsin): did not decrease activity
COc1ccc2c(O[C@@H]3C[C@H]4C(=O)N[C@]5(C(=O)NS(=O)(=O)C6CC6)C[C@H]5/C=C\CCCCN(C)C(=O)[C@@H]4C3)cc(-c3nc(C(C)C)cs3)nc2c1C [Simeprevir, reference compound] |  |  | IC50 [1, 6]: 0.043 µM; IC50—D168A/IC50—wt ratio [4]: 5.7; IC50 [2, 7]: 0.247 ± 0.39 µM
